# Measured values: patent US20190359653A1, “SELECTIVE PEPTIDE INHIBITORS OF FRIZZLED” (Genentech, Inc., priority 2016, published 2019)
# “Also recorded” adds a separate entry of the source.
# Legend:
# [1] = biological target: T1, Wnt3a binding to FZD4 CRD (Homo sapiens, UniProt Q9ULV1); assay: ELISA of biotinylated Wnt3a binding to FZD CRD-Fc; settings: peptide 0-10 μM
# T1 construct: hFZD4 CRD-Fc (cat no. 5847-FZ); purchased R&D systems 5847-FZ
# T1 sequence (Q9ULV1 40-161 limits assumed): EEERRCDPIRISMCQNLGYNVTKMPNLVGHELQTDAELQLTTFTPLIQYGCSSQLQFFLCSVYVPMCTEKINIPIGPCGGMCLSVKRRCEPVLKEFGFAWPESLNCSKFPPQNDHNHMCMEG
# Experimental: 384-well Maxisorp plates (cat. no. 464718; Thermo Scientific) were incubated with 30 μL of Neutravidin (cat. no. 31000, Thermo Scientific; 2 μg/mL in PBS) overnight at 4° C. Plates were then washed with PBST and blocked with PBS/1% BSA for 1 hour at RT and then washed with PBST prior to further processing. The binding assay was conducted in 96 well plates (cat no. 83007-374; VWR) which were blocked with PBS/1% BSA overnight at 4° C. hFZD4 CRD-Fc or hFZD7 CRD-Fc (63 ng/mL) were incubated with either Bio-Wnt3a (25 ng/mL) or Bio-Wnt5a (50 ng/mL) in the presence of 4-fold serial dilutions of the indicated peptide in PBS overnight at 4° C. All assays included hFZD9 CRD-mIgG2A protein as a negative control. hFZD7 CRD-His was suspended in 150 mM NaCl, 50 mM Tris-HCl at pH 7.5 and when used in assays an equal volume of the same buffer control was used. The binding assay mixtures were transferred to the Neutravidin coated plates and incubated for ˜1 h at RT. The wells were then washed with PBST, incubated with anti-hIgG1-HRP (1:10,000 suspended in PBS supplemented with 1% BSA; cat. no. A18817, Invitrogen), and washed again with PBST. The signal was developed with the addition of TMB reagent (following the manufacturer's recommendation; KPL; 50-76-00) for 15 min prior to the addition of an equal volume of 1 M phosphoric acid for 10 min Absorbance was measured at 450 nm using a Tekan M1000 plate reader. Values were collected and plotted using Prism Graphpad software. All assay conditions using peptides were at 1% DMSO final concentration.
# Without being bound be theory, the substantial conformational change induced by dFz7-21 on hFZD7 CRD, as exemplified by the altered geometry of the lipid binding cavity, may facilitate the accommodation of two Wnt molecules simultaneously onto the hFZD7 CRD dimer (FIG. 4e-h).
# Similar results were observed using Wnt3a. […] Binding of Wnt3a to FZD1 CRD, FZD2 CRD, and FZD7 CRD increased in the presence of dFz7-21 at concentrations below about 0.5 μM (FIG. 22E), with the most binding seen in the presence of 0.01 μM-0.05 μM dFz7-21. […] Fz7-21S had no effect on Binding of Wnt3a to any of the FZD CRDs tested (FIG. 22F).
# [2] = system: intestinal organoid samples; assay: RNA sequencing of intestinal organoids; format: cell-based, mouse; settings: 6 and 24 h
# Experimental: RNA-Seq libraries were prepared using TruSeq RNA Sample Preparation kit (Illumina, CA). The libraries were sequenced on Illumina HiSeq 2500 sequencers to obtain on average 34 million single-end reads (50 bp) per sample. RNAseq reads were first aligned to ribosomal RNA sequences to remove ribosomal reads. The remaining reads were aligned to the mouse reference genome (NCBI Build 38) using GSNAP (version 2013-10-10) (Wu, T. D. & Nacu, S. Fast and SNP-tolerant detection of complex variants and splicing in short reads. Bioinformatics 26, 873-881 (2010)) allowing a maximum of two mismatches per 50 base sequence (parameters: ‘-M 2-n 10-B 2-i 1-N 1-w 200000-E 1-pairmax-rna=200000-clip-overlap’). Transcript annotation was based on the RefSeq database (NCBI Annotation Release 104). To quantify gene expression levels, the number of reads mapped to the exons of each RefSeq gene was calculated. Read counts were scaled by library size, quantile normalized and precision weights calculated using the “voom” R package (Law, C. W., Chen, Y., Shi, W. & Smyth, G. K. voom: precision weights unlock linear model analysis tools for RNA-seq read counts. Genome Biology 15, R29 (2014)). […] In addition, gene expression was obtained in form of normalized Reads Per Kilobase gene model per Million total reads (nRPKM) as described earlier (Srinivasan, K. et al. Untangling the brain's neuroinflammatory and neurodegenerative transcriptional responses. Nat Commun 7, 11295 (2016)). […]
# We performed Quantitative Set Analysis for Gene Expression (QuSAGE) (Yaari, G., Bolen, C. R., Thakar, J. & Kleinstein, S. H. Quantitative set analysis for gene expression: a method to quantify gene set differential expression including gene-gene correlations. Nucleic Acids Research 41, e170-e170 (2013)) to identify relevant biological processes associated with Wnt inhibition. […]
Sequence,effect on Wnt3a binding to FZD4 CRD [1],enterocyte markers [2],expression of markers of Lgr5+ ISCs and reserve ISCs [2]
LPSDDLEFWCHVMY [dFz7-21],did not show any effect; also recorded: Neither Fz7-21 nor dFz7-21 had any effect,up-regulation,substantial down-regulation
"LPSDDLEFWSHVMY [Fz7-21S, negative control]",showed no effect,–,Little or no change in gene expression
